{"source": "patent EP0511791A2", "about": "“Pyrrolopyridine derivatives as Angiotensin inhibitors” (ZENECA LIMITED, priority 1991, dated 1992)", "tested_on": "angiotensin II-induced pressor responses", "assay": "Test C: antagonism of angiotensin II-induced pressor responses in rats", "assay_type": "in vivo", "conditions": "Rattus norvegicus, iv, i.v. administration", "procedure": "Test C: This in vivo test involves using terminally-anaesthetised or conscious rats in which an arterial catheter has been implanted under anaesthesia for the measurement of changes in blood pressure. The All antagonistic effects of the test compound following oral or parenteral administration, are assessed against angiotensin II-induced pressor responses. To ensure that the effect is specific, the effect of the test compound on vasopressin-induced pressor responses may also be determined in the same preparation.", "data": [{"smiles": "Cc1cc2c(cc(C)n2Cc2ccc(-c3ccccc3-c3nnn[nH]3)cc2)c(Cl)n1.Cl", "note": "[Example 2, 4-chloro-2,6-dimethyl-1-[(2'-(1H-tetrazol-5-yl)biphenyl-4-yl)methyl]-1H-pyrrolo[3,2-c]pyridine hydrochloride]", "values": [{"measurement": "ED50", "value": 0.4, "unit": "mg/kg"}]}]}
